# According to article PMC3476531, “Synergy of Peptide and Sugar in O-GlcNAcase Substrate Recognition” (Chemistry & Biology, 2012):
# Changes are numbered by the printed parent chain. Read-outs that look alike come from different tables or passages of the source.
# Legend:
# hOGA [1] = biological target: T1, hOGA (Homo sapiens, UniProt O60502); experiment: hOGA glycopeptide hydrolysis, substrate competition assay with 4MU-GlcNAc reporter; format: biochemical; parameters: GST (N); made in house; host or cells: transiently transfected HEK293 cells; conditions: wild-type full-length hOGA, competition with 4MU-GlcNAc reporter substrate, 37°C, 50 mM citrate-phosphate buffer pH 7.4, 0.1 mg/ml BSA, triplicate, ± error of curve-fit, read-out: Michaelis constant (KM) of glycopeptide substrate for hOGA
# T1 sequence (O60502 1-916): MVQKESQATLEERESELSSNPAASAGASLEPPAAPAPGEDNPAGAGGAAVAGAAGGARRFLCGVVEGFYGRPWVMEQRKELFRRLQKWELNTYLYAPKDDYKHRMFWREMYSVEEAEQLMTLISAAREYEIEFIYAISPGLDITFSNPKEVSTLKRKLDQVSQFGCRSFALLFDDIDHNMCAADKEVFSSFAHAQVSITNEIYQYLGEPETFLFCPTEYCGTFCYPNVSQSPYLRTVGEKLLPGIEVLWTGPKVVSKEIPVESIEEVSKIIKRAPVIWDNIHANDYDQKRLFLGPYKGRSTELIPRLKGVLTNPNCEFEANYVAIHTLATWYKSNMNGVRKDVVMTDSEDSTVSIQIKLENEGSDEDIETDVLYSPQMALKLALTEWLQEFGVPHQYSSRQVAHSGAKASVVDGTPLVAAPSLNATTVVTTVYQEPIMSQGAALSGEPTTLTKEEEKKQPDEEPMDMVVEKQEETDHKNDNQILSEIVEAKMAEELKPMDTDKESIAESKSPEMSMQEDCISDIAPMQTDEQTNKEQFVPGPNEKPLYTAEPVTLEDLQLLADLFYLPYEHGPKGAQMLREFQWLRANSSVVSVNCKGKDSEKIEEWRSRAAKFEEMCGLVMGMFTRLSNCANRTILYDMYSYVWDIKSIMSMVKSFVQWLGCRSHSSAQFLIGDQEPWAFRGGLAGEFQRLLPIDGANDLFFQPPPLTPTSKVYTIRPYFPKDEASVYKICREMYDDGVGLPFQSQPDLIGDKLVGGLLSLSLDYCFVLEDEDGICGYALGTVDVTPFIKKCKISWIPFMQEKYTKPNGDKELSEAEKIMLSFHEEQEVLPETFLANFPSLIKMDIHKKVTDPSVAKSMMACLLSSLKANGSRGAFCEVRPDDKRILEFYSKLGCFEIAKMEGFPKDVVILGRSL
# Experimental: Protein was expressed in transiently transfected HEK293 cells and purified via glutathione sepharose affinity chromatography.
# hOGA and CpOGA glycopeptide hydrolysis assays were carried out as described previously ([Dorfmueller et al., 2006; Schimpl et al., 2010]) using multisubstrate enzyme kinetics with the fluorigenic pseudosubstrate 4MU-GlcNAc as the reporter substrate. […] Reactions were performed at 37°C in 50 mM citrate-phosphate buffer (pH 7.4) and 0.1 mg/ml BSA. Experiments were performed in triplicate, and data were analyzed and plotted with GraphPad PRISM.
# hOGA Y69S = biological target: T2, hOGA Y69S (Homo sapiens, UniProt O60502, Y69S); experiment: hOGA Y69S mutant glycopeptide hydrolysis, substrate competition assay; format: biochemical; conditions: hOGA point mutant Y69S; competition with 4MU-GlcNAc; 37°C, pH 7.4; triplicate; read-out: Michaelis constant (KM) for hOGA Y69S
# T2 construct: GST (N); made in house; host or cells: transiently transfected HEK293 cells
# T2 sequence (O60502 1-916 Y69S): T1 sequence (O60502 1-916) with Y69S
# hOGA [2] = biological target: T1, hOGA; parameters: GST (N); made in house; conditions: wild-type hOGA; substrate competition assay with 4MU-GlcNAc; value reproduced from earlier paper; ref Schimpl et al., 2010; read-out: Michaelis constant (KM) of glycopeptide substrate for hOGA; cited from earlier work
# From the text: Table 1 Hydrophobic Stacking Interactions of Tyr69 Are Essential for Substrate Binding by hOGA | column: hOGA Peptide / VAHS(O-GlcNAc)GAK || Table 2 Intramolecular Hydrogen Bonds Stabilize the Substrate Conformation and Reduce the Km for hOGA | column: TAB1 Peptide (Ser395) || Figure 1 OGA Binds Different O-GlcNAc Glycopeptides with Similar Conformation but Different Affinities (A) Origin and sequence of O-GlcNAc peptides. The sequence of the longest peptides used is given, with residues observed in the crystal structure highlighted by colored boxes, and the shorter peptides indicated by brackets.
Substance,Km (hOGA [1]; listed as PVSVPYS(O-GlcNAc)SAQSTS),Km (hOGA [1]),Km (hOGA Y69S),Km (hOGA [2])
"PVSVPYS(O-GlcNAc)SAQSTS [TAB1 (Ser395) 13, 13-residue O-GlcNAc glycopeptide derived from TAB1 Ser395 site]",940 ± 80 µM,900 ± 30 µM,> 4000 µM,–
p53 (Ser149) 11: 11-residue O-GlcNAc glycopeptide derived from p53 Ser149 site,–,21 ± 3 µM,290 ± 20 µM,–
"VAHS(O-GlcNAc)GAK [hOGA (Ser405) 7, 7-residue O-GlcNAc glycopeptide derived from hOGA Ser405 site]",–,–,> 4000 µM,790 ± 40 µM
